Experimental data published in patent publication US7531668B2, “2-arylcarboxamide-nitrogenous heterocycle compound” (Banyu Pharmaceutical Co., Ltd., priority 2004, dated 2009).
pIC50: −log10 of the molar value. Where a name gives a salt, the structure may show the parent alone.

Target: T1, human MCH-1R (Homo sapiens, UniProt Q99705)
T1 construct: expressed in transfected cells; host or cells: CHO-K1 (American Type Culture Collection), vector pEF/mic/cyto (Invitrogen)
Assay: MCH binding inhibition test ([125I]MCH binding to membranes of MCH-1R expressing CHO-K1 cells)
Settings: 50% inhibition concentration to the specific [125I]MCH binding; 50 pM [125I]MCH, membranes of MCH-1R expression CHO-K1 cells, 25° C., one hour, pH 7.4
From the text: Pharmacological Test Example 1 (MCH Binding Inhibition Test)
A human MCH-1R encoding cDNA sequence [FEBS Letters, Vol. 398, 253 (1996); Biochimica et Biophisica Acta, Vol. 1401, 216 (1998)] was cloned to a plasmid vector pEF/mic/cyto (Invitrogen Corporation). The obtained expression vector was transfected to host cells CHO-K1 (American Type Culture Collection) using Lipofectamine Plus Reagent (Life Technology Inc.) to provide MCH-1R expression cells.
Membrane samples prepared from the MCH-1R expression cells were incubated with each test compound and 50 pM of [^125I]MCH (NEN Co.), in an assay buffer (50 mM Tris buffer comprising 10 mM magnesium chloride, 2 mM ethylenediamine tetraacetate, 0.01% bacitracin and 0.2% bovine serum albumin; pH 7.4) at 25° C. for an hour, followed by filtration through a glass filter GF/C (Wattman Co.). After washing the glass filter with 50 mM Tris buffer (pH 7.4) comprising 10 mM magnesium chloride, 2 mM ethylenediamine tetraacetate and 0.04% Tween-20, the radioactive activity on the glass filter was measured. The non-specific binding was measured in the presence of 1 μM human MCH and 50% inhibition concentration (IC50 value) of each test compound to the specific [^125I,]MCH binding was determined.

T1 sequence (Q99705 whole entry): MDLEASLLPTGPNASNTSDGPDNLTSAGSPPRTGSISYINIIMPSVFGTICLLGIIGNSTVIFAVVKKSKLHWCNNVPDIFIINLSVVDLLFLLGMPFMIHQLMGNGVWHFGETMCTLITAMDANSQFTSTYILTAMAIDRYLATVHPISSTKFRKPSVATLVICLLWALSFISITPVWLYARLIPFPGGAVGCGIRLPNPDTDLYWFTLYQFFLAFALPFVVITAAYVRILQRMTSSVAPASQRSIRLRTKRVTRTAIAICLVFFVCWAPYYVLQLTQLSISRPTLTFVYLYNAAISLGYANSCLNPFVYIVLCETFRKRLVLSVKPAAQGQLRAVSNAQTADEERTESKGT

Compound | pIC50
CCN(CC)Cc1ccc(NC(=O)c2cc3cc(OCc4ccccc4)ccc3[nH]2)cc1 [Example 1-3, 5-(benzyloxy)-N-{4-[(diethylamino)methyl]phenyl}-1H-indole-2-carboxamide] | 8.25
COCCN(C)Cc1ccc(NC(=O)c2cc3cc(OCc4ccccc4)ccc3[nH]2)cc1 [Example 2-10, 5-(benzyloxy)-N-(4-{[(2-methoxyethyl)(methyl)amino]methyl}phenyl)-1H-indole-2-carboxamide] | 8.34
O=C(Nc1ccc(CN2CCOCC2)cc1)c1cc2cc(OCc3ccccc3)ccc2[nH]1 [Example 1-1, 5-(benzyloxy)-N-[4-(morpholinomethyl)phenyl]-1H-indole-2-carboxamide hydrochloride] | 8.02
O=C(Nc1ccc(CN2CCCC2)cc1)c1cc2cc(OCc3ccccc3)ccc2[nH]1 [Example 2-6, 5-(benzyloxy)-N-[4-(1-pyrrolidinylmethyl)phenyl]-1H-indole-2-carboxamide trifluoroacetate] | 8.59
